Test results published in patent publication US8969390B2, “Composition containing sorbitan monocaprylate and antimicrobial substances” (Clariant Finance (BVI) Limited, priority 2009, dated 2015).

Experiments:
[1] = system: Pseudomonas aeruginosa, Staphylococcus aureus, Candida albicans and Aspergillus brasiliensis; test: Challenge test according to Ph. Eur. Chapter 5.1.3, overall preservation (all test organisms); type: cell-based; details: formulation A (cream)
Procedure: (§1) The following examples show results of challenge tests that were carried out according to the requirements of Ph. Eur. Chapter 5.1.3. The following test organisms are used here as representatives for microorganisms: Pseudomonas aeruginosa (gram-negative; abbreviated below as “P. a.”), Staphylococcus aureus (gram-positive; abbreviated below as “St. a.”), Candida albicans (yeast fungus; abbreviated below as “C. a.”) and Aspergillus brasiliensis (mold fungus; abbreviated below as “A. b.”). In a challenge test, a cosmetic, dermatological or pharmaceutical formulation is accurately considered as adequately preserved if all four test organisms are passed at least with a B criterion. An A criterion means an outstanding preservation, a B criterion, means an adequate preservation and with an F criterion the test is considered overall as not passed. As a comparison, an unpreserved sample of the respective formulation is additionally tested. The further abbreviations SC=sorbitan monocaprylate, Octopirox®=piroctone olamine apply below.
(§2) The assignment of the A, B and F criteria is directed by the level of the microorganism count reduction within a fixed time interval, in which only the logarithmic reduction is considered.

Aspergillus brasiliensis = test: Challenge test according to Ph. Eur. Chapter 5.1.3, Aspergillus brasiliensis; type: cell-based; details: formulation B (shampoo), use concentration 0.05% piroctone olamine
Procedure: as §1, §2

| SMILES | adequate preservation of formulation A ([1]; 0.4% benzoic acid as individual antimicrobial active ingredient) | protection of formulation B against growth of mold fungi (Aspergillus brasiliensis) | adequate preservation of formulation A ([1]; use concentration 0.05% piroctone olamine) |
| --- | --- | --- | --- |
| O=C(O)c1ccccc1 [Benzoic acid, benzoic acid, reference compound] | does not suffice | – | – |
| Cc1cc(CC(C)CC(C)(C)C)n(O)c(=O)c1.NCCO (stereo not drawn) [Octopirox ®, piroctone olamine] | – | cannot adequately protect | cannot be preserved adequately |
